The target of the assay is T1, human GLP-1 receptor (Homo sapiens, UniProt P43220).
T1 construct: expressed in transfected cells
T1 sequence (P43220 24-463): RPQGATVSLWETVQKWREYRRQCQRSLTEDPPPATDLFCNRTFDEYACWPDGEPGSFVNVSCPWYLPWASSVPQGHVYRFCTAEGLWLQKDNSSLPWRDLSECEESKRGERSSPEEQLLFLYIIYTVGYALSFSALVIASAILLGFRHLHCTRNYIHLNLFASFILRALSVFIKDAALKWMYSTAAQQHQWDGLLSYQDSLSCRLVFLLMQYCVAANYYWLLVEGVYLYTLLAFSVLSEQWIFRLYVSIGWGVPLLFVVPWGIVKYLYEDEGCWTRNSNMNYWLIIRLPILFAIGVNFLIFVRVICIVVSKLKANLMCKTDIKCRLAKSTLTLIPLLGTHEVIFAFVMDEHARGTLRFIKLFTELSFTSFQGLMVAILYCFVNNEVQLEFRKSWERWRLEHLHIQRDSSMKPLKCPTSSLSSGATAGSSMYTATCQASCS
In words: GLP-1R cAMP Assay. To be noted: cAMP accumulation in CHO cells stably overexpressing the human GLP-1 receptor; 30 min treatment; HitHunter cAMP kit; read-out: EC50. Format: cell-based. The protocol:
cAMP accumulation was measured in Chinese hamster ovary (CHO) cells stably overexpressing the human GLP-1 receptor using the HitHunter cAMP Assay for Small Molecules Kit (Eurofins). Briefly, cells were grown in Ham's F12 Nutrient Mix with 10% FBS, and lifted with Cell Dissociation Buffer, Enzyme free, PBS based (ThermoFisher). […] The anti-cAMP antibody reagent was then added to cells at a 1:2 ratio and 5 μL of mixture was seeded in 384-well small volume white assay plates, at 10,000 cells/well. Cells were then treated with 50 nL compound using an ECHO 550 acoustic dispenser (Labcyte) in a 20-point dose response format in triplicate for 30 min. Cells were then lysed, and detection reagents added according to the manufacturer's protocol. After overnight incubation, luminescence was measured using a Perkin Elmer Envision plate reader. Dose response curves were analyzed using GraphPad Prism 9.0.
In the case of `Cc1ccc(Nc2cccc(C(=O)N3CCN(Cc4nc5ccc(C(=O)O)cc5n4C[C@@H]4CCO4)CC3)c2)cc1` [Compound 25, 2-[(4-{3-[(4-methylphenyl)amino]benzoyl}piperazin-1-yl)methyl]-1-{[(2S)-oxetan-2-yl]methyl}-1H-1,3-benzodiazole-6-carboxylic acid], the EC50 was over 500 nM.

In the case of `O=C(O)c1ccc2nc(CN3CCN(C(=O)c4ccc(COc5ccc(Cl)cc5Cl)o4)CC3)n(C[C@@H]3CCO3)c2c1` [Compound 26, 2-[(4-{5-[(2,4-dichlorophenoxy)methyl]furan-2-carbonyl}piperazin-1-yl)methyl]-1-{[(2S)-oxetan-2-yl]methyl}-1H-1,3-benzodiazole-6-carboxylic acid], the EC50 lay within 50 to 500 nM.

Regarding `O=C(O)c1ccc2nc(CN3CCN(Cc4cc5ccc(-c6ccc(Cl)cc6F)cc5o4)CC3)n(C[C@@H]3CCO3)c2c1` [Compound 28, 2-[(4-{[6-(4-chloro-2-fluorophenyl)-1-benzofuran-2-yl]methyl}piperazin-1-yl)methyl]-1-{[(2S)-oxetan-2-yl]methyl}-1H-1,3-benzodiazole-6-carboxylic acid], the concentration giving a half-maximal response (EC50) is over 500 nM.

Take `Cc1ccc(N(C)c2cccc(C(=O)N3CCN(Cc4nc5ccc(C(=O)O)cc5n4C[C@@H]4CCO4)CC3)c2)cc1` [Compound 29, 2-[(4-{3-[methyl(4-methylphenyl)amino]benzoyl}piperazin-1-yl)methyl]-1-{[(2S)-oxetan-2-yl]methyl}-1H-1,3-benzodiazole-6-carboxylic acid]: the EC50 was 50 to 500 nM.

Turning to `O=C(O)c1ccc2nc(CN3CCN(C(=O)c4ccc(COc5ccccc5)o4)CC3)n(C[C@@H]3CCO3)c2c1` [Compound 30, 1-{[(2S)-oxetan-2-yl]methyl}-2-({4-[5-(phenoxymethyl)furan-2-carbonyl]piperazin-1-yl}methyl)-1H-1,3-benzodiazole-6-carboxylic acid], the EC50 is over 500 nM.

In the case of `O=C(O)c1ccc2nc(CN3CCN(C(=O)c4ccc(COc5ccc(Cl)cc5)o4)CC3)n(C[C@@H]3CCO3)c2c1` [Compound 31, 2-[(4-{5-[(4-chlorophenoxy)methyl]furan-2-carbonyl}piperazin-1-yl)methyl]-1-{[(2S)-oxetan-2-yl]methyl}-1H-1,3-benzodiazole-6-carboxylic acid], the EC50 was over 500 nM.

For `Cc1ccc(Cc2cccc(C(=O)N3CCN(Cc4nc5ccc(C(=O)O)cc5n4C[C@@H]4CCO4)CC3)c2)cc1` [Compound 33, 2-[(4-{3-[(4-methylphenyl)methyl]benzoyl}piperazin-1-yl)methyl]-1-{[(2S)-oxetan-2-yl]methyl}-1H-1,3-benzodiazole-6-carboxylic acid], the EC50 is over 500 nM.

`Cc1ccc(Oc2cccc(CN3CCN(Cc4nc5ccc(C(=O)O)cc5n4C[C@@H]4CCO4)CC3)c2)cc1` [Compound 35, 2-[(4-{[3-(4-methylphenoxy)phenyl]methyl}piperazin-1-yl)methyl]-1-{[(2S)-oxetan-2-yl]methyl}-1H-1,3-benzodiazole-6-carboxylic acid]: the EC50 was over 500 nM.

For `N#Cc1ccc(OCc2ccc(C(=O)N3CCN(Cc4nc5ccc(C(=O)O)cc5n4C[C@@H]4CCO4)CC3)o2)c(F)c1` [Compound 37, 2-[(4-{5-[(4-cyano-2-fluorophenoxy)methyl]furan-2-carbonyl}piperazin-1-yl)methyl]-1-{[(2S)-oxetan-2-yl]methyl}-1H-1,3-benzodiazole-6-carboxylic acid], the EC50 was over 500 nM.

Regarding `Cc1ccc(OCc2ccc(C(=O)N3CCN(Cc4nc5ccc(C(=O)O)cc5n4C[C@@H]4CCO4)CC3)o2)c(Cl)c1` [Compound 38, 2-[(4-{5-[(2-chloro-4-methylphenoxy)methyl]furan-2-carbonyl}piperazin-1-yl)methyl]-1-{[(2S)-oxetan-2-yl]methyl}-1H-1,3-benzodiazole-6-carboxylic acid], the EC50 was over 500 nM.

For the origin of these results see patent US20230089073A1 (Carmot Therapeutics, Inc., priority 2021, published 2023).
